According to patent US20030217389A1, “Novel peptides and methods of use” (priority 2002, published 2003):

How the values were obtained:
[1] = test system: liquid tomato cell culture; experiment: Alkalinization of a liquid tomato cell culture; format: cell-based
[2] = test system: tomato apical meristems; experiment: Growth of excised tomato apical meristems in liquid culture; format: cell-based, Lycopersicon esculentum; details: for growth of isolated tomato apical meristems: 100 nM peptide in liquid media, evaluated on the 16th day, compared with control peptide
Method: Tomato plants (Lycopersicon esculentum cv. Castlemart) were grown in a growth chamber with 17 hours of light (300 μmol m^−2s^−1) per day at 28° C. and seven hour nights at 18° C. Apical meristems were excised from shoot tips of two week old tomato plants. Shoot tips (1-2 cm long) were surface sterilized using 70% ethanol solution for 20-30 seconds, followed by a 20 minute incubation in a 1.5% (v/v) commercial bleach solution. Shoot tips were washed once in sterilized water after the ethanol treatment, and four times after bleaching. Apical meristems (including meristematic tissue, dome, with a leaf primordium) were carefully isolated under a stereoscope.
Isolated meristems were immediately inoculated into a liquid media (MS salts and vitamin mixture powder (Life Technologies) and 20 g/L of sucrose) containing either tomato RALF (100 nM) (SEQ ID NO: 4), or a control peptide (100 nM) that was not capable of stimulating meristem growth. Four meristems were inoculated in a 125 mL Erlenmeyer flask containing 10 mL of media, and flasks were gently shaken at 60 rpm. Sixteen meristems were tested for each treatment in four separate flasks. The liquid media was replaced with fresh media on the 5th, 12th and 14th days of the experiment. The experiment was evaluated and terminated on the 16th day.

[3] = test system: Tobacco suspension cells; experiment: Plant cell culture alkalinization assay; format: cell-based
Method: Plant Cell Culture Alkalinization Assay: Tobacco suspension cells were maintained in MS media. The media was adjusted to pH 5.6 with KOH. Three ml aliquots of one week old cultures were transferred into 35 ml of media in 125 ml flasks and placed on an orbital shaker at 160 rpm in the dark for growth. Cells were used for assay 3-5 days after transfer (cell density was approximately 0.5 to 1.5×10^6 cells/ml). One ml of cells was aliquoted into each well of 24-well cell culture cluster plates (Costar, number 3527, Corning Incorporated, Corning, N.Y.) and allowed to equilibrate on an orbital shaker at 160 rpm for 1 hr. Aliquots (1 to 10 μl) of fractions to be tested were added to the cells and the increasing pH change of the medium (medium alkalinization) was detected with time using an Orion Model EA940 pH meter with an Orion semi-micro pH electrode (Catalog number 8103BN, Orion, Beverly, Mass.).

Sequence	alkalinization of a liquid tomato cell culture [1]	growth of isolated tomato apical meristems [2]	growth of isolated tomato apical meristems ([2]; listed as tomato RALF (SEQ ID NO: 4))	rate of meristem tissue growth in the presence versus the absence of the polypeptide ([2]; experiments of Example 3)	alkalinization of the medium of the liquid plant cell culture (pH change) [3]
ATKKYISYGALQKNSVPCSRRGASYYNCKPGAQANPYTRGCSAITRCRS (listed as Lycopersicon esculentum) [tomato RALF polypeptide (SEQ ID NO: 4), chemically synthesized tomato RALF polypeptide]	induce alkalinization	stimulates the growth	stimulated growth	at least twice as fast	–
ATKKYISYGALQKNSVPCSRRGASYYNCKPGAQANPYSRGCSAITRCRS (listed as Nicotiana tabacum) [tobacco RALF polypeptide, approximately 5 kDa polypeptide isolated from tobacco leaves]	–	–	–	–	rapidly induced alkalinization
